In ChEMBL document CHEMBL1139146, “An analogue of AICAR with dual inhibitory activity against WNV and HCV NTPase/helicase: synthesis and in vitro screening of 4-carbamoyl-5-(4,6-diamino-2,5-dihydro-1,3,5-triazin-2-yl)imidazole-1-beta-D-ribofuranoside” (Bioorg Med Chem Lett, 2007):
Activity calls are given as the source filed them. The rule behind the calls is not given here.

Assays:
[1] = Inhibition of helicase activity of Hepatitis C virus NTPase/helicase expressed in Escherichia coli using DNA substrate; design: species or system Hepacivirus hominis
Hepacivirus hominis = test: Inhibition of helicase activity of Hepatitis C virus NTPase/helicase expressed in Escherichia coli using RNA substrate
Vero = test: Inhibition of helicase activity of West Nile virus NTPase/helicase expressed in Vero E6 cells using RNA substrate; assay type: cell-based
Dengue virus = test: Inhibition of helicase activity of Dengue virus NTPase/helicase expressed in Escherichia coli using RNA substrate
[2] = Inhibition of helicase activity of West Nile virus NTPase/helicase expressed in Vero E6 cells using DNA substrate; assay type: cell-based
[3] = Inhibition of helicase activity of Japanese encephalitis virus NTPase/helicase expressed in Escherichia coli using DNA substrate
[4] = tested on: Japanese encephalitis virus; test: Inhibition of helicase activity of Japanese encephalitis virus NTPase/helicase expressed in Escherichia coli using RNA substrate
[5] = Inhibition of helicase activity of Dengue virus NTPase/helicase expressed in Escherichia coli using DNA substrate

With `NC(=O)c1ncn([C@@H]2O[C@H](CO)[C@@H](O)[C@H]2O)c1C1N=C(N)NC(N)=N1` the IC50 [1] was 37 µM, the Activity (Hepacivirus hominis) was “inactive” and the Activity (Vero) was “inactive”. The Activity (Dengue virus) was “inactive”, the IC50 [2] was 23 µM and the IC50 [3] was greater than 500 µM. The Activity [4] was “inactive” and the IC50 [5] was greater than 430 µM.
